Measurements as given in PubChem BioAssay (NCI).
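Results reflect a 48-hour exposure of cells in 96-well plates to compound at five concentrations. TGI denotes the concentration required for complete inhibition of growth.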

These compounds were tested on MDA-MB-231 breast (assay: NCI anticancer screen, dose series, 48 h).
For CSc1ncnc2c1ncn2CCC#N, the TGI was > 100 µM.
With CC(C)CC(O)P(=O)(O)O (configuration not stated) the TGI was > 100 µM.
In the case of CC1CCCC(CC(=O)O)(CC(=O)O)C1 (configuration not stated), the TGI is reported as > 100 µM.
With CC(C)(Cl)C(Br)CCC(=CCCl)CBr (mixture of isomers) the TGI was 3.5 µM.
Nc1[nH]nc2nc3ccc(C(F)(F)F)cc3nc12 was tested, and the TGI was > 100 µM.
In the case of CCC(=O)ONC(=O)Cn1ccc([N+](=O)[O-])n1, the TGI is reported as > 100 µM.
In the case of C=C1CN2CC(=C)CN(C1)CS(=O)(=O)N1CC(=C)CN(CC(=C)C1)S(=O)(=O)N1CC(=C)CN(CC(=C)C1)S(=O)(=O)C2, the TGI is reported as 92.1 µM.
Work on C=C(Cl)C(C)(Cl)CCC(Br)C(C)(C)Cl (configuration not stated) yielded a TGI of 28.7 µM.
In the case of COC(=O)C1CCCN1C(=O)C(Cc1cn(S(=O)(=O)c2ccc(C)cc2)cn1)NC(=O)OC(C)(C)C (configuration not stated), the TGI is reported as > 100 µM.
In the case of Nc1ccc(S2(c3ccc(N)cc3)C=C(c3ccccc3)C(c3ccccc3)=C2)cc1, the TGI is reported as > 100 µM.
With O=C1C(=Cc2ccccc2O)N=C(c2ccccc2)N1n1c(-c2ccccc2)nc2ccccc2c1=O the TGI was > 100 µM.
COC(=O)C1=C(C)NC(C)=C(C(=O)OC)C1c1nc2sccn2c1[N+](=O)[O-] was tested, and the TGI was > 100 µM.
With CCNC(=O)Nc1cccc(NC(=O)NCC)n1 the TGI was > 100 µM.

What follows are compounds tested on CCRF-CEM leukemia (assay: NCI anticancer screen, dose series, 48 h).
In the case of COc1ccc(C2OC(c3ccncc3)=NN2C)cc1OC (configuration not stated), the TGI is reported as > 100 µM.
Work on COc1c(C(C)C)cc2c3c1OC(=O)[C@@]31CCCC(C)(C)C1CC2 (some centres not stated) yielded a TGI of 59.7 µM.
With COc1ccc(N2C(=O)CSC2c2c[nH]c3ccccc23)cc1 (configuration not stated) the TGI was > 100 µM.
With COC1C=COC2(C)Oc3c(C)c(O)c4c(O)c(c(C5SCCS5)c(O)c4c3C2=O)NC(=O)C(C)=C/C=C\C(C)C2OC(C)(C)OC(C2C)C(C)C(OC(C)=O)C1C (configuration not stated) the TGI was > 100 µM.
With OCc1ccc(C2CC(c3ccco3)=NN2c2ccccc2)o1 (configuration not stated) the TGI was > 100 µM.
For COc1ccc(C2COc3cc(O)c(O)cc3C2)cc1 (configuration not stated), the TGI was 16.1 µM.
With CCCCN=C(c1ccccc1)N1CCOCC1 the TGI was > 100 µM.
In the case of CSc1ncnc2c1ncn2CCC#N, the TGI is reported as > 100 µM.
In the case of CCOC(=O)c1ccc(C)c(N=NN(C)C)c1, the TGI is reported as > 100 µM.
With CC1CCCC(CC(=O)O)(CC(=O)O)C1 (configuration not stated) the TGI was > 100 µM.
For CC(C)(Cl)C(Br)CCC(=CCCl)CBr (mixture of isomers), the TGI was > 21.1 µM.
O=NN(CCCl)C(=O)NC1CCC(O)CC1 (configuration not stated) was tested, and the TGI was 52.2 µM.
Nc1[nH]nc2nc3ccc(C(F)(F)F)cc3nc12 gave a TGI of 37.9 µM.
With CCC(=O)ONC(=O)Cn1ccc([N+](=O)[O-])n1 the TGI was > 100 µM.
With Cc1ccc(O)c(-c2cscn2)c1 the TGI was > 100 µM.
O=C(CN(c1ccccc1)c1ccccc1)n1nnc2ccccc21 was tested, and the TGI was > 100 µM.
CSc1sc2ccccc2[s+]1 was tested, and the TGI was > 100 µM.
For COc1cc(OC)c(C2c3cc4c(cc3OC(N3CCCC3)C2C)OCO4)c(OC)c1 (configuration not stated), the TGI was 45.5 µM.
In the case of Cc1ccc(S(=O)(=O)C(C#N)c2nc3ccccc3nc2-n2ccnc2)cc1 (configuration not stated), the TGI is reported as > 100 µM.
Compound C=C(Cl)C(C)(Cl)CCC(Br)C(C)(C)Cl (configuration not stated) has a TGI of 67.2 µM.
COC(=O)C1CCCN1C(=O)C(Cc1cn(S(=O)(=O)c2ccc(C)cc2)cn1)NC(=O)OC(C)(C)C (configuration not stated) was tested, and the TGI was > 100 µM.
Nc1ccc(S2(c3ccc(N)cc3)C=C(c3ccccc3)C(c3ccccc3)=C2)cc1 was tested, and the TGI was > 100 µM.
In the case of O=C1C(=Cc2ccccc2O)N=C(c2ccccc2)N1n1c(-c2ccccc2)nc2ccccc2c1=O, the TGI is reported as 88.6 µM.
In the case of CC(=O)O[C@]12CCCCCC1C1(O)C(O)CCCC[C@H]12 (some centres not stated), the TGI is reported as > 100 µM.
In the case of COC(=O)C1=C(C)NC(C)=C(C(=O)OC)C1c1nc2sccn2c1[N+](=O)[O-], the TGI is reported as > 100 µM.
O=c1c(C(c2ccc(Cl)cc2)c2c(O)c3ccccc3n(-c3ccccc3)c2=O)c(O)c2ccccc2n1-c1ccccc1 was tested, and the TGI was > 100 µM.
For CCNC(=O)Nc1cccc(NC(=O)NCC)n1, the TGI was > 100 µM.

These compounds were tested on ACHN renal (assay: NCI anticancer screen, dose series, 48 h).
For COc1ccc(C2OC(c3ccncc3)=NN2C)cc1OC (configuration not stated), the TGI was > 100 µM.
In the case of COc1c(C(C)C)cc2c3c1OC(=O)[C@@]31CCCC(C)(C)C1CC2 (some centres not stated), the TGI is reported as > 100 µM.
In the case of COC1C=COC2(C)Oc3c(C)c(O)c4c(O)c(c(C5SCCS5)c(O)c4c3C2=O)NC(=O)C(C)=C/C=C\C(C)C2OC(C)(C)OC(C2C)C(C)C(OC(C)=O)C1C (configuration not stated), the TGI is reported as 6.53 µM.
OCc1ccc(C2CC(c3ccco3)=NN2c2ccccc2)o1 (configuration not stated) was tested, and the TGI was > 100 µM.
With CCCCN=C(c1ccccc1)N1CCOCC1 the TGI was > 100 µM.
CSc1ncnc2c1ncn2CCC#N was tested, and the TGI was > 100 µM.
In the case of CCOC(=O)c1ccc(C)c(N=NN(C)C)c1, the TGI is reported as > 100 µM.
For CC(C)CC(O)P(=O)(O)O (configuration not stated), the TGI was > 100 µM.
For CC1CCCC(CC(=O)O)(CC(=O)O)C1 (configuration not stated), the TGI was > 100 µM.
In the case of COc1cc2c3c(c1OC)C1(C=CC(=O)C=C1)C[C@H]3N(C)CC2, the TGI is reported as > 100 µM.
For CC(C)(Cl)C(Br)CCC(=CCCl)CBr (mixture of isomers), the TGI was 7.85 µM.
For Nc1[nH]nc2nc3ccc(C(F)(F)F)cc3nc12, the TGI was > 100 µM.
In the case of CCC(=O)ONC(=O)Cn1ccc([N+](=O)[O-])n1, the TGI is reported as > 100 µM.
In the case of Cc1ccc(O)c(-c2cscn2)c1, the TGI is reported as > 100 µM.
O=C(CN(c1ccccc1)c1ccccc1)n1nnc2ccccc21 was tested, and the TGI was > 100 µM.
For CSc1sc2ccccc2[s+]1, the TGI was > 100 µM.
For COc1cc(OC)c(C2c3cc4c(cc3OC(N3CCCC3)C2C)OCO4)c(OC)c1 (configuration not stated), the TGI was 30.7 µM.
